In PMC8067507, “Aryl Urea Based Scaffolds for Multitarget Drug Discovery in Anticancer Immunotherapies” (Pharmaceuticals, 2021):

Columns and labels:
[1] = system: HEK-293 (human embryonic kidney cells); assay: Cell proliferation assay (MTT); type: cell-based; conditions: HEK293, 48 h, 2 days incubation, average ± SD of three experiments
[2] = system: HT-29 (colon adenocarcinoma); assay: Cell proliferation assay (MTT); type: cell-based; conditions: Homo sapiens, HT-29, 48 h, 2 days incubation, average ± SD of three experiments
[3] = system: HeLa (epithelioid cervix carcinoma); assay: Cell proliferation assay (MTT); type: cell-based; conditions: Homo sapiens, 48 h, 2 days incubation, average ± SD of three experiments
[4] = system: MCF-7 (breast adenocarcinoma); assay: Cell proliferation assay (MTT); type: cell-based; conditions: Homo sapiens, MCF7, 48 h, 2 days incubation, average ± SD of three experiments
PD-L1 [5] = target: T1, PD-L1 (Homo sapiens, UniProt Q9NZQ7); assay: PD-L1 quantification by flow cytometry in HT-29; type: cell-based; conditions: HT-29, 10 μM, 24 h, referred to control (DMSO)
T1 sequence (Q9NZQ7 19-290): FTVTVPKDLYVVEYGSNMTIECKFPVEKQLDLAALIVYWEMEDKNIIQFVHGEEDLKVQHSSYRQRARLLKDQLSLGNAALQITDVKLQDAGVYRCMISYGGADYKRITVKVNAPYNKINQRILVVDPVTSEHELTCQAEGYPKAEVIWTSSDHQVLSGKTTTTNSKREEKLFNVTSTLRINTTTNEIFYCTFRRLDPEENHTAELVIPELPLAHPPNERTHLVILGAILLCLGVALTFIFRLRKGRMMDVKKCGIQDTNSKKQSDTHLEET
Procedure: (§1) We evaluated the effect of the selected compounds on PD-L1 and on c-Myc proteins by flow cytometry after 24 h treatment at 10 μM concentration of compounds. Both, PD-L1 and c-Myc were relatively determined using DMSO treated cells as a negative control and BMS-8 as a positive one.
(§2) For the detection of total PD-L1 and c-Myc, cancer cells were seeded (3 × 10^5 cells/well) in 6-well plates and were incubated with the corresponding compounds for 24 h. Then they were collected, fixed, treated with 0.5% Triton^TM X-100 and stained with Alexa Fluor® 647 Rabbit monoclonal Anti-PD-L1 (ab215251) and FITC Rabbit monoclonal anti-c-Myc (ab223913).
(§3) We also checked results performing ELISA tests. For ELISA tests, lysates were collected, protein quantification was carried out by Bradford test and, then, PD-L1 and c-Myc were quantified using Human PD-L1 ELISA Kit 28-8 (ab214565) and c-Myc (Total) Human ELISA Kit (KHO2041), respectively, according to the manufacturer’s instructions.

HMEC-1 cells = assay: Tube formation inhibition assay; type: cell-based, human; conditions: HMEC-1 on Matrigel, 20 h incubation; average of three experiments
Procedure: HT-29, MCF-7, HeLa, A549 and HEK-293 cell lines were maintained in Dulbecco’s modified Eagle’s medium (DMEM) containing glucose (1 g/L), glutamine (2 mM), penicillin (50 μg/mL), streptomycin (50 μg/mL), and amphotericin B (1.25 μg/mL), supplemented with 10% FBS. HMEC-1 cell line was maintained in Dulbecco’s modified Eagle’s medium (DMEM)/low glucose containing glutamine (2 mM), penicillin (50 μg/mL), streptomycin (50 μg/mL), and amphotericin B (1.25 μg/mL), supplemented with 10% FBS. For the development of tube formation assays in Matrigel, HMEC-1 cells were cultured in EGM-2MV Medium supplemented with EGM-2MV SingleQuots.
Wells of an IBIDI μ-slide angiogenesis (IBIDI, Martinsried, Germany) were coated with 12 μL of Matrigel® (10 mg/mL, BD Biosciences) at 4 °C. After gelatinization at 37 °C for 30 min, HMEC-1 cells were seeded at 2 × 10^4 cells/well in 35 μL of culture medium on top of the Matrigel and were incubated 30 min at 37 °C while are attached. Then, compounds were added dissolved in 35 μL of culture medium and after 20 h of incubation at 37 °C, tube destruction was evaluated.

PD-L1 [6] = target: T1, PD-L1; assay: PD-L1 quantification by flow cytometry in A-549; type: cell-based; set-up: endogenous in cells; host or cells: A-549 cancer cells; conditions: A-549, 10 μM, 24 h, referred to control (DMSO)
Procedure: as §1, §2, §3

COc1ccc(/C=C\c2cccc(NC(=O)Nc3ccc(Br)cc3)c2)cc1 [Compound 16]
melting point: 173 °C | IC50 [1]: 10 ± 2 µM | IC50 [2]: 17 ± 1 µM | IC50 [3]: 12 ± 4 µM | IC50 [4]: 24 ± 7 µM | PD-L1 (%) relative expression (PD-L1 [5]): 17 ± 5% | Minimum Active Conc. (inhibition of tube formation) (HMEC-1 cells): 10 µM | PD-L1 (%) relative expression (PD-L1 [6]): 23 ± 8%
